Where two headings read alike, the source gives them in different places.
Columns and labels:
Format in all cases: cell-based, human
[1] = test system: IL-10-induced JAK1/TYK2 signal pathway; assay: IL-10-induced JAK1/TYK2 signal pathway STAT3-Luc reporter gene assay in U2OS cells; details: U2OS cells, STAT3-Luc reporter, IL-10 10 ng/mL, read-out: Half inhibition dose (IC50) on IL-10-induced JAK1/TYK2 signal pathway
Excerpt: Cytokine IL-10 is one of the main members of IL-10 family. The receptor that cytokine IL-10 binds to consists of two kinds of subunits, i.e., IL-10R1 and IL-10R2, which respectively couple with JAK1 and TYK2. After the coupling of IL-10 with its receptor, interaction of phosphorylation occurs between JAK1 and TYK2 to form STAT3 docking site for phosphorylation of STAT3. The phosphorylated STAT3 enters the nucleus and drives the transcription and expression of downstream genes.
The reporter gene plasmid STAT3-Luc Reporter used in the present invention has luciferase expression sequence as the reporter gene, upstream of which is a promoter sequence containing multiple STAT3 binding sites. When phosphorylated STAT3 induced by IL-10 signal pathway binds to the promoter of STAT3-Luc Reporter plasmid, luciferase is transcribed and expressed. The excitation fluorescence catalyzed by Luciferase can be detected after the addition of […] substrate, whose intensity can quantitively reflect the activation level of the signal pathway.
Human osteosarcoma cell line U20S was commercially available from American Type Culture Collection (ATCC), and relevant culture conditions referred to those from ATCC. It was known that such cell line could express IL-10R2, JAK1, TYK2 and STAT3, therefore, by exogenous expression of IL-10R1 gene, a complete IL-10 signal pathway could be established. The human IL-10R1 subunit overexpression plasmid pCMV3-IL10RA-EGFP was constructed by Shanghai Genechem Co., Ltd., and capable of simultaneously expressing enhanced green fluorescent protein. In the subsequent detection and calculation, the signal of green fluorescent protein in the tested sample was used as a reference for transfection efficiency calibration of the luciferase reporter gene signal. Reporter plasmid STAT3-Luc Reporter was commercially available from Ji Man Biotech (Shanghai) Co., Ltd.
X-tremeGENE 9 DNA Transfection Reagent (Roche) was used for the transfection of plasmid DNA into cells, Cell Culture Lysis 5× reagent (Promega) and Luciferase Assay System (Promega) were used in cell lysate preparation and enzyme-substrate reaction for luciferase reporter gene detection. Green fluorescent protein signal and luciferase reporter gene signal were both detected by Tecan Spark™ 10M multimode microplate reader. The inhibition rate of the tested compound on the IL-10 signal pathway reporter gene signal and the half inhibition dose IC50 were both calculated using Microsoft Excel and GraphPad Prism 7.00 software.
U2OS cell line was inoculated in 96-well plate with flat bottom at 5000 cells per well, and cultured overnight at 37° C. and 5% CO2 followed by plasmid transfection. Following the instructions and using X-tremeGENE 9 DNA Transfection Reagent, pCMV3-IL10RA-EGFP and STAT3-Luc Reporter plasmids were co-transfected into the inoculated U2OS cells. After 24 hours of transfection, the tested compound was added respectively for a final concentration of 0, 0.1, 0.3, 1, 3, 10, 30, 100, or 300 nM. After 6 hours of culture at 37° C. and 5% CO2, IL-10 cytokine (Human IL-10 PEPROTECH 200-10-10UG) was added to each well for a final concentration of 10 ng/mL, the well in which neither compound nor cytokine was added was designated as 0% control well. The culture was continued for 24 hours before testing.
Cell lysate was prepared by using Cell Culture Lysis reagent and transferred to 96-well plate with half-well clear bottom. The green fluorescent protein signal value was detected at Ex485/Em520 using Tecan microplate reader, and recorded. After adding to each well the luciferase substrate from Luciferase Assay System, the signal value of luciferase-substrate reaction was immediately detected at 560 nm using Tecan microplate reader, and recorded.
Using Microsoft Excel software, the signal value of luciferase-substrate reaction of each well was calculated and calibrated based on the signal value of green fluorescent protein of each well. […]

[2] = test system: IL-2-induced JAK1/JAK3 signal pathway; assay: IL-2-induced proliferation of KHYG-1 cells (JAK1/JAK3 signal); details: KHYG-1 cell proliferation, IL-2 10 ng/mL, 72 hours, read-out: Inhibition activity IC50 on IL-2-induced JAK1/JAK3 signal pathway
Summary of the method: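 KHYG-1 NK lymphoma cells were cultured with IL-2 and test compound at various doses for 72 h at 37 °C and 5% CO2, and proliferation was read with alamarBlue fluorescence. Inhibition was normalized to wells without compound or cytokine (0%) and IL-2 wells without compound (100%), and C50 was derived from the dose-inhibition data.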

[3] = test system: EPO-induced JAK2 signal pathway; assay: EPO-induced proliferation of UT-7 cells (JAK2 signal); details: UT-7 cell proliferation, EPO 10 ng/mL, 72 hours, read-out: Inhibition activity IC50 on EPO-induced JAK2 signal pathway
Summary of the method: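 UT-7 cells (15000/well) stimulated with 10 ng/mL human recombinant EPO plus compound at final 0, 100, 1000 or 10000 nM, 72 h at 37° C., 5% CO2. Proliferation by alamarBlue fluorescence (Ex530/Em590); inhibition normalised to no-cytokine/no-compound (0) and EPO-only (100) wells, […] derived from dose-inhibition.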

| Compound | IC50 ([1]; Homo sapiens, U2OS) [µM] | IC50 [1] [µM] | IC50 ([2]; Homo sapiens) [µM] | IC50 ([3]; Homo sapiens, UT7) [µM] | IC50 ([1]; Homo sapiens) [µM] | IC50 [2] [µM] | IC50 [3] [µM] |
| --- | --- | --- | --- | --- | --- | --- | --- |
| CONC(=O)c1cnc(Nc2ccc(F)cn2)cc1Nc1ccc(Cl)cc1N(C)S(C)(=O)=O [Example 46, 4-((4-chloro-2-(N-methylmethanesulfonamido)phenyl)amino)-6-((5-fluoropyridin-2-yl)amino)-N-methoxy nicotinamide] | 0.00109 |  | > 10 | > 10 |  |  |  |
| CONC(=O)c1cnc(Nc2cccc(F)n2)cc1Nc1ccc(Cl)cc1N(C)S(C)(=O)=O [Example 47, 4-((4-chloro-2-(N-methylmethanesulfonamido)phenyl)amino)-6-((6-fluoropyridin-2-yl)amino)-N-methoxy nicotinamide] | 0.00134 |  | > 10 | > 10 |  |  |  |
| CONC(=O)c1cnc(Nc2cccc(F)n2)cc1Nc1ccc(OCC2CC2)cc1N(C)S(C)(=O)=O [Example 62, 4-((4-(cyclopropylmethoxy)-2-(N-methylmethanesulfonamido)phenyl)amino)-6-((6-fluoropyridin-2-yl)amino)-N-methoxy nicotinamide] | 0.00129 |  | > 10 | > 10 |  |  |  |
| CONC(=O)c1cnc(NC(=O)C2CC2)cc1Nc1ccc(OCC2CC2)cc1N(C)S(C)(=O)=O [Example 63, 6-(cyclopropylcarboxamido)-4-((4-(cyclopropylmethoxy)-2-(N-methylmethanesulfonamido)phenyl)amino)-N-methoxy nicotinamide] | 0.000865 |  | > 10 | > 10 |  |  |  |
| CONC(=O)c1cnc(NC(=O)C2CC2)cc1Nc1cccc(-c2ncn(C)n2)c1OC [Example 69, 6-(cyclopropylcarboxamido)-N-methoxy-4-((2-methoxy-3-(1-methyl-1H-1,2,4-triazol-3-yl)phenyl)amino)-nicotinamide] |  |  | > 10 | > 10 | 0.00278 |  |  |
| CONC(=O)c1cnc(NC(=O)C2CC2)cc1Nc1ccc(F)cc1N(C)S(C)(=O)=O [Example 70, 6-(cyclopropylcarboxamido)-4-((4-fluoro-2-(N-methylmethanesulfonamido)phenyl)amino)-N-methoxy nicotinamide] |  |  | > 10 | > 10 | 0.00244 |  |  |
| CONC(=O)c1cnc(Nc2ccc(F)cn2)cc1Nc1ccc(Cl)cc1N(C)S(C)(=O)=O [Example 80, 4-((4-chloro-2-(N-methylmethanesulfonamido)phenyl)amino)-6-((5-fluoropyridin-2-yl)amino)-N-methoxy nicotinamide] |  | 0.000961 |  |  |  | > 10 | > 10 |
| CONC(=O)c1cnc(NC(=O)C2CC2)cc1Nc1ccc(C)cc1N(C)S(C)(=O)=O [Example 81, 6-(cyclopropylcarboxamido)-N-methoxy-4-((4-methyl-2-(N-methylmethanesulfonamido)phenyl)amino)nicotinamide] |  |  | > 10 | > 10 | 0.0015 |  |  |
| CCONC(=O)c1cnc(NC(=O)C2CC2)cc1Nc1cc(F)c(C2CC2)cc1N(C)S(C)(=O)=O [Example 97, 6-(cyclopropylcarboxamido)-4-((4-cyclopropyl-5-fluoro-2-(N-methylmethanesulfonamido)phenyl)amino)-N-ethoxy nicotinamide] | 0.00133 |  | > 10 | > 10 |  |  |  |
| CNC(=O)c1cnc(Nc2ccc(F)cn2)cc1Nc1ccccc1N(C)S(C)(=O)=O [Example 100, 6-((5-fluoropyridin-2-yl)amino)-N-methyl-4-((2-(N-methylmethanesulfonamido)phenyl)amino)nicotinamide] | 0.017 |  | > 10 | > 10 |  |  |  |

Continued by falling IC50 ([1]; Homo sapiens, U2OS), values first:

| IC50 ([1]; Homo sapiens, U2OS) [µM] | IC50 [1] [µM] | Compound | IC50 ([2]; Homo sapiens) [µM] | IC50 ([3]; Homo sapiens, UT7) [µM] | IC50 ([1]; Homo sapiens) [µM] | IC50 [2] [µM] | IC50 [3] [µM] |
| --- | --- | --- | --- | --- | --- | --- | --- |
| 0.279 |  | CP(C)(=O)c1ccccc1Nc1cc(NC(=O)C2CC2)ncc1C(N)=O [Example 93, 6-(cyclopropylcarboxamido)-4-((2-(dimethylphosphoryl)phenyl)amino)nicotinamide] | > 10 | > 10 |  |  |  |
| 0.00228 |  | CCONC(=O)c1cnc(Nc2ccc(F)cn2)cc1Nc1ccc(C2CC2)cc1N(C)S(C)(=O)=O [Example 95, 4-((4-cyclopropyl-2-(N-methylmethanesulfonamido)phenyl)amino)-N-ethoxy-6-((5-fluoropyridin-2-yl)amino)nicotinamide] | > 10 | > 10 |  |  |  |
| 0.0017 |  | CONC(=O)c1cnc(Nc2ccc(F)cn2)cc1Nc1ccc(OCC2CC2)cc1N(C)S(C)(=O)=O [Example 61, 4-((4-(cyclopropylmethoxy)-2-(N-methylmethanesulfonamido)phenyl)amino)-6-((5-fluoropyridin-2-yl)amino)-N-methoxy nicotinamide] | > 10 | > 10 |  |  |  |
| 0.00147 |  | CONC(=O)c1cnc(Nc2ccc(OC)cn2)cc1Nc1ccccc1N(C)S(C)(=O)=O [Example 101] | > 10 | > 10 |  |  |  |
| 0.0014 |  | CCONC(=O)c1cnc(NC(=O)C2CC2)cc1Nc1ccccc1N(C)S(C)(=O)=O [Example 90, 6-(cyclopropylcarboxamido)-N-ethoxy-4-((2-(N-methylmethanesulfonamido)phenyl)amino)nicotinamide] | > 10 | > 10 |  |  |  |
| 0.00131 |  | [2H]C([2H])([2H])ONC(=O)c1cnc(Nc2cccc(F)n2)cc1Nc1ccc(C2CC2)cc1N(C)S(C)(=O)=O [Example 68, 4-((4-cyclopropyl-2-(N-methylmethanesulfonamido)phenyl)amino)-6-((6-fluoropyridin-2-yl)amino)-N-(methoxy-d3)nicotinamide] | > 10 | > 10 |  |  |  |
| 0.00115 |  | CONC(=O)c1cnc(Nc2ccc(F)cn2)cc1Nc1ccc(C)nc1N(C)S(C)(=O)=O [Example 60] | > 10 | > 10 |  |  |  |
| 0.000889 |  | CONC(=O)c1cnc(NC(=O)C2CC2)cc1Nc1ccc(Cl)cc1N(C)S(C)(=O)=O [Example 79, 4-((4-chloro-2-(N-methylmethanesulfonamido)phenyl)amino)-6-(cyclopropylcarboxamido)-N-methoxy nicotinamide] | > 10 | > 10 |  |  |  |
| 0.000623 |  | CONC(=O)c1cnc(Nc2cccc(C)n2)cc1Nc1ccccc1N(C)S(C)(=O)=O [Example 102, N-methoxy-4-((2-(N-methylmethanesulfonamido)phenyl)amino)-6-((6-methylpyridin-2-yl)amino)nicotinamide] | > 10 | > 10 |  |  |  |

From patent US20240101548A1, “HYDROXAMATE COMPOUND, PREPARATION METHOD THEREFOR AND APPLICATION THEREOF” (SHENZHEN CHIPSCREEN BIOSCIENCES CO., LTD., priority 2020, published 2024)
